Patent publication US6251894A, “1-(1,2-disubstituted piperidinyl)-4 (fused imidazole)-piperidine derivatives” (Janssen Pharmaceuticals N.V., priority 1995, dated 2001)
Read-outs that look alike come from different tables or passages of the source.

Experiments:
[1] = tested on: Substance P Induced Relaxation of the Pig Coronary Arteries; test: Antagonism of substance P induced relaxation of the pig coronary arteries; details: 30 min incubation
Procedure, shortened: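 Inverted pig coronary artery segments, endothelium outside, in Krebs-Henseleit at 37 °C (95/5 O2/CO2), isometric tension recorded. After prostaglandin F2α (10^-5 M) precontraction, substance P (3×10^-10 M and 10^-9 M cumulative) relaxation repeated after 30 min incubation with test compound.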

[2] = tested on: Substance P Induced Plasma Extravasation; test: Antagonism of substance P induced plasma extravasation in guinea-pigs; format: in vivo, guinea-pig; details: Cavia porcellus, sc, s.c., 1 hour prior to substance P
Procedure, shortened: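 Female guinea-pigs; compound or solvent given s.c. or p.o. 1 h before substance P (2 mg/kg, femoral artery) plus Evans Blue (30 mg/kg). Blue colouring of nose, forepaws, conjunctiva scored at 10 min; trachea and urinary bladder at 30 min after CO2 sacrifice. Values are lowest active doses in mg/kg.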

[3] = test compound concentration 3 × 10^-9 (unit not given)
[4] = 10 min, conjunctiva, read-out: lowest active dose (LAD), conjunctiva
[5] = 10 min, forepaws, read-out: lowest active dose (LAD), forepaws
[6] = 10 min, nose, read-out: lowest active dose (LAD), nose
[7] = 0.5 h, trachea, read-out: lowest active dose (LAD), trachea
[8] = 0.5 h, urinary bladder, read-out: lowest active dose (LAD), urinary bladder

Compound	% inhibition of the response to 10^-9 M substance P [1, 3]	minimal effective dose [2, 4]	minimal effective dose [2, 5]	minimal effective dose [2, 6]	minimal effective dose [2, 7]	minimal effective dose [2, 8]	% inhibition of the response to 10^-9 M substance P ([1]; test compound concentration 3 × 10^-8 (unit not given))
Cc1cc(C)cc(C(=O)N2CC[C@@H](N3CCC(=C4c5sccc5CCn5ccnc54)CC3)C[C@H]2Cc2ccccc2)c1 (relative stereo) [Compound 35]	27.7%	10 mg/kg	10 mg/kg	10 mg/kg	10 mg/kg	10 mg/kg	
Cn1ccc2c1CCn1ccnc1C2=C1CCN([C@@H]2CCN(C(=O)c3cc(C(F)(F)F)cc(C(F)(F)F)c3)[C@@H](Cc3ccccc3)C2)CC1 (racemic) [Compound 2, (±)-trans-1-[3,5-bis(trifluoromethyl)benzoyl]-4-[4-(5,6,7,10-tetrahydro-7-methylimidazo[1,2-a]pyrrolo[3,2-d]azepin-10-ylidene)-1-piperidinyl]-2-(phenylmethyl)piperidine]		0.16 mg/kg	0.16 mg/kg	0.16 mg/kg	2.5 mg/kg	2.5 mg/kg	96.5%
O=C(c1cc(C(F)(F)F)cc(C(F)(F)F)c1)N1CC[C@@H](N2CCC(=C3c4ccsc4CCn4ccnc43)CC2)C[C@H]1Cc1ccccc1 (relative stereo) [Compound 18]	39.8%	2.5 mg/kg	10 mg/kg	10 mg/kg	10 mg/kg	10 mg/kg	
O=C(c1cc(C(F)(F)F)cc(C(F)(F)F)c1)N1CC[C@@H](N2CCC(=C3c4ccsc4CCn4ccnc43)CC2)C[C@@H]1Cc1ccccc1 (relative stereo) [Compound 19]	78.1%	2.5 mg/kg	2.5 mg/kg	2.5 mg/kg	2.5 mg/kg	10 mg/kg	
Cc1cc(C)cc(C(=O)N2CCC(N3CCC(C4c5ccccc5Cn5ccnc54)CC3)CC2Cc2ccccc2)c1 (stereo not drawn) [Compound 108]	2.6%	10 mg/kg	10 mg/kg	10 mg/kg	10 mg/kg	10 mg/kg	
O=C(c1cc(C(F)(F)F)cc(C(F)(F)F)c1)N1CC[C@@H](N2CCC(C3c4ccccc4CCn4ccnc43)CC2)C[C@@H]1Cc1ccccc1 (stereo partly drawn) [Compound 8]	82.3%	10 mg/kg	2.5 mg/kg	2.5 mg/kg	10 mg/kg	10 mg/kg	
